The conditions of data set [1]: clinical trials; cited from earlier work.
The next data set relates to PLC/PRF/5 cells. Description: CCK-8 cytotoxicity assay, PLC/PRF/5. Type of data set: cell-based. Conditions: Homo sapiens; PLC/PRF/5, CCK-8, 72 h incubation, n = 3. On the procedure:
(§1) The cytotoxicity of HL, 1, and 2 against three hepatocellular carcinoma cell lines Hep-G2, PLC/PRF/5, and HuH-7 were evaluated by the cell counting kit-8 (CCK-8; APExBIO Technology, Houston, TX, USA) assay.
(§2) The HuH-7 cell line was cultured in DMEM + 10% FBS + 1% P/S and DMEM + 1% P/S. Cells grew as a monolayer and were detached upon confluence using trypsin (0.5% w/v in PBS). The cells were harvested from the cell culture medium by incubation in trypsin solution for 3 min, and they were then centrifuged with the supernatant and subsequently discarded. A 3 mL portion of serum-supplemented cell culture medium was added to neutralize any residual trypsin. The cells were re-suspended in serum-supplemented DMEM at a concentration of 5 × 10^4 cells/mL. […] After incubation, 100 μL of culture medium (DMEM + 10% FBS + 1% P/S) and 10 μL of CCK-8 was introduced and cultured for an additional 2 h before spectrophotometric measurement at 450 nm on a microplate reader. The relative cell viability (%) related to control cells was calculated using the equation: V%=[A]experimental−[A]blank/[A]control−[A]blank×100% where V% is the percentage of cell viability, [A]experimental is the absorbance of the wells culturing the treated cells, [A]blank is the absorbance of the blank, and [A]control is the absorbance of the wells culturing untreated cells. […]
(In general: Formazan colour is commonly taken as a measure of viable cells.)

A short description of data set [2]: In vivo pharmacokinetic study of HL (plasma, HPLC). More on the design: species or system CD®(SD) IGS rats. The protocol: For pharmacokinetic studies, CD®(SD) IGS rats (5−6 weeks old) were randomly divided into two groups (three for each group) for oral administration (per os, PO) or intravenous administration (i.v.) of HL with dosages of 30 mg kg^−1 and 0.5 mg kg^−1, respectively (Tables S3 and S4). The blood was then collected from the orbital sinus with a heparinized syringe at different time intervals (0.5, 1.0, 2.0, 4.0, 8.0, and 24 h for PO, and 0.03, 0.5, 1.0, 2.0, 4.0, 8.0, and 24 h for i.v.).
CD®(SD) IGS rats (5–6 weeks old) were purchased from Beijing Vital River Laboratory Animal Technology Co., Ltd. (Beijing, China). All animal experiments were conducted in accordance with the requirements of the Experimental Animal Welfare Ethics Committee of Transcenta Diagnostic Technology (Suzhou) Co., Ltd. (PZ-20211210001). For pharmacokinetic experiments, SD rats were randomly divided into two groups, with 3 for PO administration (30 mg kg^−1) and i.v. administration (0.5 mg kg^−1), respectively. Plasma was collected from the jugular vein with the presence of a heparinized syringe at different time intervals, viz. 0.5, 1.0, 2.0, 4.0, 8.0, and 24 h for PO and 0.03, 0.5, 1.0, 2.0, 4.0, 8.0, and 24 h for i.v. Plasma was first centrifuged at 3500 rpm for 10 min, and then 0.05 mL of the plasma was extracted; trifluoroacetic acid was used to acid precipitate protein, and NaOH was used to neutralize the solution. The mixture was diluted using MeCN: H2O (5:5 v/v). After 10 min of precipitating, supernatant fluids were collected by centrifugation at 10,000 rpm for 5 min and filtered with a syringe through a 0.22 μm hydrophilic membrane filter and measured using the HPLC method. For the HPLC assay, the analytical column was an Agilent ZORBAX SB C18 column (4.6 mm × 150 mm, 5 μm). The mobile phase was MeCN:H2O (5:5 v/v), the flow rate of the mobile phase was 0.8 mL min^−1, and the UV detector was set at 245 nm.

The test system of a further data set is CD®(SD) IGS rats. The data set is described as follows: Toxicological study of HL, daily PO administration. The format is in vivo. The protocol: Their weight and status were monitored and compared with the control group (groups 1 and 2) that was fed sterilizing solutions. […] This highlights that a 5 mg kg^−1 drug dosage of HL by PO administration is safe for in vivo studies.
The weight of the rats was continuously monitored over 27 days, and they were fed on day 1, 4, 8, 13, 16, 19, and 23.

The nature of data set [3]: Stability of MeOH solutions by UV-Vis. Conditions: HL/L concentration 30 μg/mL, kept for 72 h.
In a further data set the test system is Hep-G2 cells. The data set is described as follows: CCK-8 cytotoxicity assay, Hep-G2. The settings on record: Homo sapiens, HepG2; Hep-G2, CCK-8, 72 h incubation, n = 3. The format is cell-based. The protocol: as §1, §2
For data set [4], the system named is HuH-7 cells. The data set is described as follows: CCK-8 cytotoxicity assay, HuH-7. Type of data set: cell-based. Conditions: Homo sapiens; HuH-7, CCK-8, 72 h incubation, n = 3. The protocol: as §1, §2
Data set [5] in a line: Hydroxyl radical (•OH) production from H2O2, TMB assay. The settings on record: 5, 10, 20, 30 μg/mL HL or equivalent HL, 100 μM H2O2, 20 min incubation.
Method: The generation of •OH from H2O2 by HL, 1, and 2 was assayed by 3,3′,5,5′-tetramethylbenzidine (TMB) [12, 28, 29]. The colorless TMB can be quickly oxidized by •OH to give a characteristic blue charge-transfer complex oxTMB with intense absorption at 652 nm [30, 31]. Different concentrations of HL (5, 10, 20, 30 μg/mL) or 1 and 2 containing equivalent HL were treated with (TMB) solution containing 100 μM H2O2, which is assumed as approximately the concentration reported to be present in tumor cells, or five times that in normal cells [32, 33].
Data set [6] deals with HuH-7 cells. The data set is described as follows: Intracellular ROS generation, DCFH-DA probe. The settings on record: HuH-7, equivalent HL concentration 2 μg/mL, 2 h. The format is cell-based. An excerpt:
Given the efficient •OH production in water induced by 1 and 2, we next investigated in vitro ROS generation by 1 and 2 in the representative HuH-7 cell line using 2′,7′-dichlorodihydrofluorescein diacetate (DCFH-DA) as a fluorescence probe and compared it with that of HL [34, 35]. The non-emissive DCFH-DA can be readily uptaken by the cell, where it is hydrolyzed into 2,7-dichlorodihydrofluorescein (DCFH) by cellular enzymes. Upon oxidation by ROS, DCFH can convert to 2,7-dichlorofluorescein (DCF), which gives bright green fluorescence.
HuH-7 cells were introduced into a 12-well plate (4 × 10^5 per well) in 1 mL of growing media (DMEM + 10% FBS + 1% P/S), and the cells were incubated at 37 °C under 5% CO2 for 24 h for attachment. The growing media were removed, and the wells were replenished with HL, 1, and 2 in 1 mL of growing media (with 2 ppm of DMSO) with equivalent HL concentrations of 2 μg/mL. The cells were incubated for an additional 2 h, and then the culturing media was replaced with […] DCFH-DA in DMEM + 1% P/S (1 mL), prepared by diluting (1:1000) a concentrated DCFH-DA following the supplied protocols. The cells were incubated for a further 20 min, and then the culturing media was removed. […]

[7] abbreviates: CD(SD) IGS (SD), rat, plasma, iv, 0.5 mg kg−1, mean, n = 3.
[8] abbreviates: CD(SD) IGS (SD), rat, plasma, iv, 0.5 mg/kg, 0.5 mg kg−1, mean, n = 3.
Setting [9] is: CD(SD) IGS (SD), rat, plasma, po, 30 mg/kg, 30 mg kg−1, mean, n = 3.
The mark [10] stands for this setting: CD(SD) IGS (SD), rat, plasma, PO, 30 mg kg−1, mean, n = 3.

The structures appear in SMILES notation.

Turning to `S=C(N/N=C1\CCCc2cccnc21)N1CCN(c2ccccn2)CC1` [COTI-2, 4-(pyridine-2-yl)-N-([(8E)-5,6,7,8-tetrahydroquinolin-8-ylidene]amino)piperazine-1-carbothioamide], the side effects entry in data set [1] was “drug resistance and other adverse effects (i.e., nausea, vomiting, and fatigue)”.

As for `NC(=S)NN=Cc1ccc(O)cn1` [Compound 5-HP, 5-hydroxypicolinaldehyde thiosemicarbazone], the side effects entry in data set [1] is “severe hematological and gastrointestinal side effects”.

What is called IC50 is the concentration needed to halve the response being measured. The term AUC(0-inf) denotes total exposure, with the tail of the curve extrapolated. In general, AUC(0-t) refers to the area under the concentration-time curve up to a stated or last time point. Read a low AUC(0-t) as less exposure. Usually MRT last stands for a mean duration of stay, worked out from the concentration-time curve. By half-life is commonly meant the time in which the quantity being followed falls by half. The low end stands for rapid decline, the high end for slow decline. One may read the Cmax as the maximum level reached in the sampled fluid or tissue. One may read the Tmax as the time from dosing to the highest level. Consider `S=C(NN=C(c1ccccn1)c1ccccn1)N1CCN(c2nccs2)CC1` [HL, N′-(di(pyridin-2-yl)methylene)-4-(thiazol-2-yl)piperazine-1-carbothiohydrazide], for which the IC50 in the data set with PLC/PRF/5 cells stood at 3.26 µM; in the data set with Hep-G2 cells, 78.8 µM; with HuH-7 cells [4] it was 192 µM. The AUC(0-inf) in data set [2] (setting [7]) came to 5700 ± 2650 ng·h/mL; in [2] (setting [10]) it was 10400 ± 5310 ng·h/mL. For the same molecule, the AUC(0-t) was 4210 ng·h/mL in data set [2] (setting [7]) and 5340 ng·h/mL in [2] (setting [10]). Also, in data set [2] (setting [7]), the C0 was 858 ng/mL. In addition, the MRT last in data set [2] (setting [7]) amounted to 7.85 h; in data set [2] (setting [10]), 9.4 h. In addition, the figures for the half-life in [2] (setting [7]) and in data set [2] (setting [10]) were 11.9 ± 1.66 h and 21.6 ± 9.4 h, respectively. The clearance in data set [2] (CD(SD) IGS (SD), rat, plasma, iv, 0.5 mg kg−1, mean, n = 3, read-out: Cl_obs (converted)) is 1.8 mL/min/kg. Further, the concentration at 0.03 h in data set [2] (CD(SD) IGS (SD), rat, plasma, iv, 0.5 mg kg−1, sampling time 0.03 h) was 806 ng/mL. The concentration at 0.5 h came out at 349 ng/mL in data set [2] (CD(SD) IGS (SD), rat, plasma, iv, 0.5 mg kg−1, sampling time 0.50 h) and 242 ng/mL in data set [2] (CD(SD) IGS (SD), rat, plasma, PO, 30 mg kg−1, sampling time 0.50 h). Also, the concentration at 1 h in data set [2] (CD(SD) IGS (SD), rat, plasma, iv, 0.5 mg kg−1, sampling time 1.00 h) is 341 ng/mL; in data set [2] (CD(SD) IGS (SD), rat, plasma, PO, 30 mg kg−1, sampling time 1.00 h), 426 ng/mL. Besides, the concentration at 2 h came to 372 ng/mL in data set [2] (CD(SD) IGS (SD), rat, plasma, iv, 0.5 mg kg−1, sampling time 2.00 h) and 410 ng/mL in data set [2] (CD(SD) IGS (SD), rat, plasma, PO, 30 mg kg−1, sampling time 2.00 h). For the same molecule, the concentration at 4 h in [2] (CD(SD) IGS (SD), rat, plasma, iv, 0.5 mg kg−1, sampling time 4.00 h) is 240 ng/mL; in [2] (CD(SD) IGS (SD), rat, plasma, PO, 30 mg kg−1, sampling time 4.00 h), 316 ng/mL. For the same molecule, the concentration at 8 h in data set [2] (CD(SD) IGS (SD), rat, plasma, iv, 0.5 mg kg−1, sampling time 8.00 h) was found to be 163 ng/mL; in data set [2] (CD(SD) IGS (SD), rat, plasma, PO, 30 mg kg−1, sampling time 8.00 h), 218 ng/mL. The concentration at 24 h in data set [2] (CD(SD) IGS (SD), rat, plasma, iv, 0.5 mg kg−1, sampling time 24.00 h) worked out at 83.8 ng/mL; in data set [2] (CD(SD) IGS (SD), rat, plasma, PO, 30 mg kg−1, sampling time 24.00 h), 145 ng/mL. In addition, the Cmax in data set [2] (setting [8]) was 806 ± 46.7 ng/mL; in data set [2] (setting [9]) it was 472 ng/mL. Also, the Tmax in data set [2] (setting [8]) came to 0.03 h; in data set [2] (setting [9]), 1.17 h. For the same molecule, in [2] (CD(SD) IGS (SD), rat, plasma, PO, 30 mg kg−1, mean, n = 3, read-out: Cl_F_obs (converted)), the CL/F is 55.6 mL/min/kg. Further, the Vz_F_obs in [2] (PO, 30 mg kg−1, mean, n = 3) was found to be 93.07416 L/kg. In data set [2] (i.v., 0.5 mg kg−1, mean, n = 3), this molecule returned a Vss_obs of 1.75547 L/kg. For the same molecule, in data set [2] (i.v., 0.5 mg kg−1, mean, n = 3), the Vz_obs amounted to 1.75231 L/kg. Further, the “body weight of rats” value in the data set on CD®(SD) IGS rats (daily 5 mg kg−1 (12.2 μmol kg−1), groups 3 and 4, similar to control groups 1 and 2) is on record as “constantly growing”. Besides, the “rats with abnormal behaviors (decreasing food uptake, cachexia, lethargy) on day 9, which died or were euthanized after drug suspension” value with CD®(SD) IGS rats (daily 10 mg kg−1 (24.4 μmol kg−1), groups 5 and 6) is on record as “four of six”. The “stability of MeOH solution (UV-Vis absorption pattern)” value in data set [3] was “remained stable”. The “generation of •OH from H2O2 (oxTMB, absorption at 652 nm)” value in data set [5] was “no oxTMB found”. For the same molecule, the “intracellular ROS generation (DCF fluorescence)” value in the data set with HuH-7 cells [6] is “negligible ROS”.

In the case of `NC(=S)NN=Cc1ncccc1N` [Triapine, 3-aminopyridine-2-carboxaldehyde thiosemicarbazone], in data set [1], the side effects result is recorded as “formation of methemoglobin hypoxia”.
